Results published in patent publication US6376497B1, “Antifungal azole derivatives having a fluorinated vinyl group and process for preparing same” (Korea Research Institute of Chemical Technology, priority 1999, dated 2002).
Converted amounts (≈) assume the structure as drawn. Where two headings read alike, the source gives them in different places.

How the values were obtained:
Test in all cases: In vitro antifungal activity, microbroth dilution MIC
Assay type in all cases: cell-based
[1] = tested on: Aspergillus furnigatus B. 19119; settings: Aspergillus
Outline: (§1)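 Broth microdilution adapted from NCCLS M27, in RPMI-1640 with 0.165 M MOPS, pH 7.0. Yeast or mould inoculum at 2×10^3 CFU/ml was mixed 1:1 with DMSO-derived compound solutions (200 to 0.10 μg/ml before mixing) and incubated at 35 °C for 4 to 48 h. MIC was the concentration showing no growth.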

[2] = tested on: Aspergillus niger A. 16404; settings: Aspergillus niger
Outline: as §1

[3] = tested on: Candida albicans A. 10231; settings: Candida albicans, 4 to 48 hours
Outline: as §1

Candida albicans C1-2 = settings: Candida albicans, 4 to 48 hours
Outline: as §1

[4] = tested on: Candida albicans IFO. 1385; settings: Candida albicans, 4 to 48 hours
Outline: as §1

Candida krusei K. 11655 = settings: Pichia kudriavzevii, 4 to 48 hours
Outline: as §1

[5] = tested on: Candida pseudotropicalis K. 11658; settings: Kluyveromyces marxianus, 4 to 48 hours
Outline: as §1

[6] = tested on: Candida tropicalis A. 13803; settings: Candida tropicalis, 4 to 48 hours
Outline: as §1

[7] = tested on: Cryptococcus neoformans A. 34144; settings: Cryptococcus neoformans
Outline: as §1

[8] = tested on: Cryptococcus neoformans B. 42419; settings: Cryptococcus neoformans, 4 to 48 hours
Outline: as §1

[9] = tested on: Cryptococcus neoformans IFM. 40092; settings: Cryptococcus neoformans
Outline: as §1

[10] = tested on: Torulopsis glabrata B. 16205; settings: Nakaseomyces glabratus, 4 to 48 hours
Outline: as §1

[11] = tested on: Trichophyton mentagrophytes A. 9129; settings: Trichophyton mentagrophytes
Outline: as §1

[12] = tested on: Trichophyton mentagrophytes B. 32663; settings: Trichophyton mentagrophytes
Outline: as §1

[13] = A furnigatus B. 19119, RPMI-1640, 35° C., 4 to 48 hours, read-out: Minimal inhibitory concentration (MIC)
[14] = B.19119, RPMI-1640, 35° C., 4 to 48 hours, no growth observed, read-out: Minimal inhibitory concentration(MIC), A furnigatus B. 19119
[15] = B.19119, RPMI-1640, 35° C., no growth observed, read-out: Minimal inhibitory concentration (MIC), A furnigatus B. 19119
[16] = A. niger A. 16404, RPMI-1640, 35° C., 4 to 48 hours, read-out: Minimal inhibitory concentration (MIC)
[17] = A.16404, RPMI-1640, 35° C., 4 to 48 hours, no growth observed, read-out: Minimal inhibitory concentration(MIC), A. niger A. 16404
[18] = A.16404, RPMI-1640, 35° C., no growth observed, read-out: Minimal inhibitory concentration (MIC), A. niger A. 16404
[19] = A.10231, RPMI-1640, 35° C., no growth observed, read-out: Minimal inhibitory concentration(MIC), C. albicans A. 10231
[20] = C. albicans A. 10231, RPMI-1640, 35° C., read-out: Minimal inhibitory concentration (MIC)
[21] = C12, C. albicans C1-2, RPMI-1640, 35° C., read-out: Minimal inhibitory concentration (MIC)
[22] = C12, RPMI-1640, 35° C., no growth observed, read-out: Minimal inhibitory concentration(MIC), C. albicans C1-2
[23] = C. albicans IFO. 1385, RPMI-1640, 35° C., read-out: Minimal inhibitory concentration (MIC)
[24] = IFO.1385, RPMI-1640, 35° C., no growth observed, read-out: Minimal inhibitory concentration(MIC), C. albicans IFO. 1385
[25] = C. krusei K. 11655, RPMI-1640, 35° C., read-out: Minimal inhibitory concentration (MIC)
[26] = K.11655, RPMI-1640, 35° C., no growth observed, read-out: Minimal inhibitory concentration(MIC), C. krusei K. 11655
[27] = C. pseudotropicalis K. 11658, RPMI-1640, 35° C., read-out: Minimal inhibitory concentration (MIC)
[28] = K.11658, RPMI-1640, 35° C., no growth observed, read-out: Minimal inhibitory concentration(MIC), C. pseudotropicalis K. 11658
[29] = A.13803, RPMI-1640, 35° C., no growth observed, read-out: Minimal inhibitory concentration(MIC), C. tropicalis A. 13803
[30] = C. tropicalis A. 13803, RPMI-1640, 35° C., read-out: Minimal inhibitory concentration (MIC)
[31] = A.34144, RPMI-1640, 35° C., 4 to 48 hours, no growth observed, read-out: Minimal inhibitory concentration(MIC), Cry. neoformans A. 34144
[32] = A.34144, RPMI-1640, 35° C., no growth observed, read-out: Minimal inhibitory concentration (MIC), Cry. neoformans A. 34144
[33] = Cry. neoformans A. 34144, RPMI-1640, 35° C., 4 to 48 hours, read-out: Minimal inhibitory concentration (MIC)
[34] = B.42419, RPMI-1640, 35° C., no growth observed, read-out: Minimal inhibitory concentration(MIC), Cry. neoformans B. 42419
[35] = Cry. neoformans B. 42419, RPMI-1640, 35° C., read-out: Minimal inhibitory concentration (MIC)
[36] = Cry. neoformans IFM. 40092, RPMI-1640, 35° C., 4 to 48 hours, read-out: Minimal inhibitory concentration (MIC)
[37] = IFM.40092, RPMI-1640, 35° C., 4 to 48 hours, no growth observed, read-out: Minimal inhibitory concentration(MIC), Cry. neoformans IFM. 40092
[38] = IFM.40092, RPMI-1640, 35° C., no growth observed, read-out: Minimal inhibitory concentration (MIC), Cry. neoformans IFM. 40092
[39] = B.16205, RPMI-1640, 35° C., no growth observed, read-out: Minimal inhibitory concentration(MIC), T. glabrata B. 16205
[40] = T. glabrata B. 16205, RPMI-1640, 35° C., read-out: Minimal inhibitory concentration (MIC)
[41] = A.9129, RPMI-1640, 35° C., 4 to 48 hours, no growth observed, read-out: Minimal inhibitory concentration(MIC), T. mentagrophytes A. 9129
[42] = A.9129, RPMI-1640, 35° C., no growth observed, read-out: Minimal inhibitory concentration (MIC), T. mentagrophytes A. 9129
[43] = T. mentagrophytes A. 9129, RPMI-1640, 35° C., 4 to 48 hours, read-out: Minimal inhibitory concentration (MIC)
[44] = B.32663, RPMI-1640, 35° C., 4 to 48 hours, no growth observed, read-out: Minimal inhibitory concentration(MIC), T. mentagrophytes B. 32663
[45] = B.32663, RPMI-1640, 35° C., no growth observed, read-out: Minimal inhibitory concentration (MIC), T. mentagrophytes B. 32663
[46] = T. mentagrophytes B. 32663, RPMI-1640, 35° C., 4 to 48 hours, read-out: Minimal inhibitory concentration (MIC)

| Compound | MIC [1, 13] | MIC [1, 14] | MIC [1, 15] | MIC [2, 16] | MIC [2, 17] | MIC [2, 18] | MIC [3, 19] | MIC [3, 20] | MIC (Candida albicans C1-2; [21]) | MIC (Candida albicans C1-2; [22]) | MIC [4, 23] | MIC [4, 24] | MIC (Candida krusei K. 11655; [25]) | MIC (Candida krusei K. 11655; [26]) | MIC [5, 27] | MIC [5, 28] | MIC [6, 29] | MIC [6, 30] | MIC [7, 31] | MIC [7, 32] | also measured |
| --- | --- | --- | --- | --- | --- | --- | --- | --- | --- | --- | --- | --- | --- | --- | --- | --- | --- | --- | --- | --- | --- |
| OC(Cn1cncn1)(Cn1cncn1)c1ccc(F)cc1F [fluconazole, reference compound] | > 100 µg/mL | > 100 µg/mL | > 100 µg/mL | > 100 µg/mL | > 100 µg/mL | > 100 µg/mL | > 100 µg/mL | > 100 µg/mL | > 100 µg/mL | > 100 µg/mL | 12.5 µg/mL (≈ 40.8 µM) | 12.5 µg/mL (≈ 40.8 µM) | 25 µg/mL (≈ 81.6 µM) | 25 µg/mL (≈ 81.6 µM) | 12.5 µg/mL (≈ 40.8 µM) | 12.5 µg/mL (≈ 40.8 µM) | > 100 µg/mL | > 100 µg/mL | 12.5 µg/mL (≈ 40.8 µM) | 12.5 µg/mL (≈ 40.8 µM) | MIC [7, 33]: 12.5 µg/mL (≈ 40.8 µM); MIC [8, 34]: 25 µg/mL (≈ 81.6 µM); MIC [8, 35]: 25 µg/mL (≈ 81.6 µM); MIC [9, 36]: 3.13 µg/mL (≈ 10.2 µM); MIC [9, 37]: 3.13 µg/mL (≈ 10.2 µM); MIC [9, 38]: 3.13 µg/mL (≈ 10.2 µM); MIC [10, 39]: 100 µg/mL (≈ 327 µM); MIC [10, 40]: 100 µg/mL (≈ 327 µM); MIC [11, 41]: 50 µg/mL (≈ 163 µM); MIC [11, 42]: 50 µg/mL (≈ 163 µM); MIC [11, 43]: 50 µg/mL (≈ 163 µM); MIC [12, 44]: 12.5 µg/mL (≈ 40.8 µM); MIC [12, 45]: 12.5 µg/mL (≈ 40.8 µM); MIC [12, 46]: 12.5 µg/mL (≈ 40.8 µM) |
| CCC(C)n1ncn(-c2ccc(N3CCN(c4ccc(OCC5COC(Cn6cncn6)(c6ccc(Cl)cc6Cl)O5)cc4)CC3)cc2)c1=O (centres unmarked) [itraconazole, reference compound] | ≤ 0.1 µg/mL | ≤ 0.1 µg/mL | ≤ 0.1 µg/mL | 1.56 µg/mL (≈ 2.21 µM) | 1.56 µg/mL (≈ 2.21 µM) | 1.56 µg/mL (≈ 2.21 µM) | > 100 µg/mL | > 100 µg/mL | > 100 µg/mL | > 100 µg/mL | 1.56 µg/mL (≈ 2.21 µM) | 1.56 µg/mL (≈ 2.21 µM) | 0.39 µg/mL (≈ 0.553 µM) | 0.39 µg/mL (≈ 0.553 µM) | 0.39 µg/mL (≈ 0.553 µM) | 0.39 µg/mL (≈ 0.553 µM) | > 100 µg/mL | > 100 µg/mL | 0.39 µg/mL (≈ 0.553 µM) | 0.39 µg/mL (≈ 0.553 µM) | MIC [7, 33]: 0.39 µg/mL (≈ 0.553 µM); MIC [8, 34]: 0.39 µg/mL (≈ 0.553 µM); MIC [8, 35]: 0.39 µg/mL (≈ 0.553 µM); MIC [9, 36]: ≤ 0.1 µg/mL; MIC [9, 37]: ≤ 0.1 µg/mL; MIC [9, 38]: ≤ 0.1 µg/mL; MIC [10, 39]: 50 µg/mL (≈ 70.9 µM); MIC [10, 40]: 50 µg/mL (≈ 70.9 µM); MIC [11, 41]: ≤ 0.1 µg/mL; MIC [11, 42]: ≤ 0.1 µg/mL; MIC [11, 43]: ≤ 0.1 µg/mL; MIC [12, 44]: ≤ 0.1 µg/mL; MIC [12, 45]: ≤ 0.1 µg/mL; MIC [12, 46]: ≤ 0.1 µg/mL |
